Results reported in patent publication US20220096516A1, “OLIGONUCLEOTIDE MOLECULE AND APPLICATION THEREOF IN TUMOR THERAPY” (Ractigen Therapeutics, priority 2019, published 2022).
d = 2'-deoxy (DNA); r = 2'-OH (RNA)

Tested on: LHPP gene
Assay: High-throughput screening of saRNAs targeting LHPP promoter: LHPP mRNA by one-step RT-qPCR in Huh7 cells
Format: cell-based, human
Details: 10 nM saRNA, 72 hours, relative to control (Mock)
Procedure: Human liver cancer cell line Huh7 was cultured in DMEM medium (Gibco), containing 10% of calf serum (Sigma-Aldrich) and 1% of penicillin/streptomycin (Gibco). The cells were cultured at 5% CO2 and 37° C. According to the instructions provided by the manufacturer, RNAiMax (Invitrogen, Carlsbad, Calif.) was used to transfect small activating RNAs at a concentration of 10 nM (unless otherwise specified).
At the end of transfection, the media were discarded, and each well was washed with 150 μL of PBS once. After discarding the PBS, 50 μL of cell lysis buffer (Takara) was added to each well and incubated at room temperature for 5 min. 1 μL of the resulted cell lysis was taken from each well and analyzed by qPCR on an ABI 7500 fast real-time PCR system (Applied Biosystems) using a one-step TB Green™ PrimeScrip™ RT-PCR kit II (Takara, RR086A) Each transfection sample was repeatedly amplified in 3 replicate wells.
Reaction conditions were as follows: reverse transcription reaction (stage 1): 5 min at 42° C., 10 s at 95° C.; PCR reaction (stage 2): 5 s at 95° C., 20 s at 60° C., 45 cycles of amplification. HPRT1 and TBP were used as internal reference genes. PCR primers used for amplifying LHPP, HPRT1 and TBP genes are shown in Table 2, wherein LHPP was amplified using the LHPP F1/R1 primer pair.
To calculate the relative expression level (Erel) of LHPP (target gene) in an saRNA-transfected sample relative to control treatment (Mock), the Ct values of the target gene and the two internal reference genes were substituted into formula 1
Erel=2^(CtT^m^-CtT^s^)/((2^(CtR1^m^-CtR1^s^)*2^(CtR2^m^-CtR2^s^))^(1/2))
wherein CtTm was the Ct value of the target gene from the control (Mock) sample; CtTs was the Ct value of the target gene from the saRNA-treated sample; CtR1m was the Ct value of the internal reference gene 1 from the control (Mock) sample; CtR1s was the Ct value of the internal reference gene 1 from the saRNA-treated sample; CtR2m was the Ct value of the internal reference gene 2 from the control (Mock) sample; and CtR2s was the Ct value of the internal reference gene 2 from the saRNA-treated sample.
In order to obtain saRNAs capable of activating LHPP transcription, Huh7 cells were transfected with each of the aforementioned 290 saRNAs with a transfection concentration of 10 nM, and 72 hours later, according to the same method as described above, the cells were lysed and analyzed by one-step RT-qPCR to obtain the relative (compared with the control (Mock)) expression level of LHPP gene for each saRNA-treated sample. […] The observed maximum activation and maximum inhibition is 3.46 fold and 0.49 fold, respectively, saRNAs with activating activity are referred to as activating saRNAs, and the saRNAs with inhibiting activity are referred to as inhibiting saRNAs.

Substance	Fold of changes in relative LHPP mRNA expression level [fold]	Fold of changes in relative LHPP mRNA expression level (log2)
RAG7-29: saRNA duplex; sense CACCCGGUCUUCUUGCCCUTT (SEQ ID NO: 79), antisense AGGGCAAGAAGACCGGGUGTT (SEQ ID NO: 243) (sugars from the 5' end r19 d2, backbone not given here)	1.28	0.35
RAG7-31: saRNA duplex; sense UGCACCCGGUCUUCUUGCCTT (SEQ ID NO: 94), antisense GGCAAGAAGACCGGGUGCATT (SEQ ID NO: 258) (sugars from the 5' end r19 d2, backbone not given here)	1.23	0.30
RAG7-32: saRNA duplex; sense UUGCACCCGGUCUUCUUGCTT (SEQ ID NO: 44), antisense GCAAGAAGACCGGGUGCAATT (SEQ ID NO: 208) (sugars from the 5' end r19 d2, backbone not given here)	1.40	0.49
RAG7-33: saRNA duplex; sense UUUGCACCCGGUCUUCUUGTT (SEQ ID NO: 119), antisense CAAGAAGACCGGGUGCAAATT (SEQ ID NO: 283) (sugars from the 5' end r19 d2, backbone not given here)	1.18	0.24
RAG7-34: saRNA duplex; sense GUUUGCACCCGGUCUUCUUTT (SEQ ID NO: 26), antisense AAGAAGACCGGGUGCAAACTT (SEQ ID NO: 190) (sugars from the 5' end r19 d2, backbone not given here)	1.51	0.59
RAG7-35: saRNA duplex; sense GGUUUGCACCCGGUCUUCUTT (SEQ ID NO: 24), antisense AGAAGACCGGGUGCAAACCTT (SEQ ID NO: 188) (sugars from the 5' end r19 d2, backbone not given here)	1.53	0.61
RAG7-43: saRNA duplex; sense CAGUUCCGGGUUUGCACCCTT (SEQ ID NO: 93), antisense GGGUGCAAACCCGGAACUGTT (SEQ ID NO: 257) (sugars from the 5' end r19 d2, backbone not given here)	1.23	0.30
RAG7-44: saRNA duplex; sense CCAGUUCCGGGUUUGCACCTT (SEQ ID NO: 121), antisense GGUGCAAACCCGGAACUGGTT (SEQ ID NO: 285) (sugars from the 5' end r19 d2, backbone not given here)	1.18	0.24
RAG7-86: saRNA duplex; sense CCGUUUCAGGGGCGAGUGATT (SEQ ID NO: 137), antisense UCACUCGCCCCUGAAACGGTT (SEQ ID NO: 301) (sugars from the 5' end r19 d2, backbone not given here)	1.15	0.20
RAG7-89: saRNA duplex; sense ACACCGUUUCAGGGGCGAGTT (SEQ ID NO: 104), antisense CUCGCCCCUGAAACGGUGUTT (SEQ ID NO: 268) (sugars from the 5' end r19 d2, backbone not given here)	1.21	0.28
RAG7-92: saRNA duplex; sense AGGACACCGUUUCAGGGGCTT (SEQ ID NO: 155), antisense GCCCCUGAAACGGUGUCCUTT (SEQ ID NO: 319) (sugars from the 5' end r19 d2, backbone not given here)	1.11	0.15
RAG7-93: saRNA duplex; sense AAGGACACCGUUUCAGGGGTT (SEQ ID NO: 144), antisense CCCCUGAAACGGUGUCCUUTT (SEQ ID NO: 308) (sugars from the 5' end r19 d2, backbone not given here)	1.14	0.19
RAG7-94: saRNA duplex; sense AAAGGACACCGUUUCAGGGTT (SEQ ID NO: 13), antisense CCCUGAAACGGUGUCCUUUTT (SEQ ID NO: 177) (sugars from the 5' end r19 d2, backbone not given here)	1.64	0.72
RAG7-95: saRNA duplex; sense AAAAGGACACCGUUUCAGGTT (SEQ ID NO: 12), antisense CCUGAAACGGUGUCCUUUUTT (SEQ ID NO: 176) (sugars from the 5' end r19 d2, backbone not given here)	1.67	0.74
RAG7-96: saRNA duplex; sense GAAAAGGACACCGUUUCAGTT (SEQ ID NO: 105), antisense CUGAAACGGUGUCCUUUUCTT (SEQ ID NO: 269) (sugars from the 5' end r19 d2, backbone not given here)	1.21	0.27
RAG7-97: saRNA duplex; sense CGAAAAGGACACCGUUUCATT (SEQ ID NO: 71), antisense UGAAACGGUGUCCUUUUCGTT (SEQ ID NO: 235) (sugars from the 5' end r19 d2, backbone not given here)	1.29	0.37
RAG7-98: saRNA duplex; sense CCGAAAAGGACACCGUUUCTT (SEQ ID NO: 145), antisense GAAACGGUGUCCUUUUCGGTT (SEQ ID NO: 309) (sugars from the 5' end r19 d2, backbone not given here)	1.14	0.19
RAG7-100: saRNA duplex; sense UUCCGAAAAGGACACCGUUTT (SEQ ID NO: 125), antisense AACGGUGUCCUUUUCGGAATT (SEQ ID NO: 289) (sugars from the 5' end r19 d2, backbone not given here)	1.17	0.22
RAG7-102: saRNA duplex; sense GCUUCCGAAAAGGACACCGTT (SEQ ID NO: 96), antisense CGGUGUCCUUUUCGGAAGCTT (SEQ ID NO: 260) (sugars from the 5' end r19 d2, backbone not given here)	1.23	0.30
RAG7-103: saRNA duplex; sense AGCUUCCGAAAAGGACACCTT (SEQ ID NO: 72), antisense GGUGUCCUUUUCGGAAGCUTT (SEQ ID NO: 236) (sugars from the 5' end r19 d2, backbone not given here)	1.29	0.37
